From patent US8779132B2, “Pharmaceutical compounds” (Astex Therapeutics Limited, priority 2006, dated 2014)
Structures can show the parent of a compound that is named as a salt.

Key:
[1] = tested on: HCT116 cell line; assay: Anti-proliferative activity, Alamar Blue assay; type: cell-based; details: Homo sapiens, HCT-116, 72 h
Protocol: The anti-proliferative activities of compounds of the invention can be determined by measuring the ability of the compounds to inhibition of cell growth in a number of cell lines such as the human colon cancer cell line HCT116. […] The method is based on the ability of viable cells to reduce resazurin to its fluorescent product resorufin. […] The number of viable cells is determined by Alamar Blue assay as before. Cell lines can be obtained from the ECACC (European Collection of cell Cultures).

[2] = Plasma stability studies; type: in vitro ADME; details: mouse plasma, 37° C., approximately 1 hour
Protocol: The ease with which pro-drug compounds of the invention can be converted to the active moiety can be assessed by measuring the in vitro plasma stability of the compounds. The method is based on the ability of plasma enzymes to metabolise compounds to the active moiety. Compounds are added to plasma and incubated at 37° C. for approximately 1 hour. Aliquots of plasma are removed at timed intervals and the compound extracted by the addition of acetonitrile containing an internal standard. All extracts are then analysed for parent compound, the active moiety and the internal standard using a compound specific LCMS-MS assay. Stability is measured by comparison of the peak area ratio of the parent compound and internal standard at time zero with the peak area ratio of the parent compound and internal standard in the incubated samples. Generation of the active moiety in samples is also assessed.

CC(C)c1cc(C(=O)N2Cc3ccc(C(=O)N4CCNCC4)cc3C2)c(O)cc1O [Example 54, (2,4-dihydroxy-5-isopropyl-phenyl)-[5-(piperazine-1-carbonyl)-1,3-dihydro-isoindol-2-yl]-methanone hydrochloride]
IC50 [1]: < 1000 nM

CC(=O)Oc1cc(OC(C)=O)c(C(C)C)cc1C(=O)N1Cc2ccc(N3CCN(C)CC3)cc2C1 [Example 84, acetic acid 5-acetoxy-4-isopropyl-2-[5-(4-methyl-piperazin-1-yl)-1,3-dihydro-isoindole-2-carbonyl]-phenyl ester]
generation of the active moiety (2,4-dihydroxy-5-isopropyl-phenyl)-[5-(4-methyl-piperazin-1-yl)-1,3-dihydro-isoindol-2-yl]-methanone [2]: formed the active moiety | in vitro plasma stability [2]: range of stabilities

CC(C)c1cc(C(=O)N2Cc3ccc(N4CCN(C)CC4)cc3C2)c(OC(=O)N(C)C)cc1OC(=O)N(C)C [Example 86, dimethyl-carbamic acid 5-dimethylcarbamoyloxy-2-isopropyl-4-[5-(4-methyl-piperazin-1-yl)-1,3-dihydro-isoindole-2-carbonyl]-phenyl ester]
generation of the active moiety (2,4-dihydroxy-5-isopropyl-phenyl)-[5-(4-methyl-piperazin-1-yl)-1,3-dihydro-isoindol-2-yl]-methanone [2]: formed the active moiety | in vitro plasma stability [2]: range of stabilities

CC(C)c1cc(C(=O)N2Cc3ccc(N4CCN(C)CC4)cc3C2)c(OC(=O)C(C)(C)C)cc1OC(=O)C(C)(C)C [Example 85, 2,2-dimethyl-propionic acid 5-(2,2-dimethyl-propionyloxy)-4-isopropyl-2-[5-(4-methyl-piperazin-1-yl)-1,3-dihydro-isoindole-2-carbonyl]-phenyl ester]
generation of the active moiety (2,4-dihydroxy-5-isopropyl-phenyl)-[5-(4-methyl-piperazin-1-yl)-1,3-dihydro-isoindol-2-yl]-methanone [2]: formed the active moiety | in vitro plasma stability [2]: range of stabilities

CC(C)c1cc(C(=O)N2Cc3ccccc3C2)c(O)cc1O [Example 5, (1,3-Dihydro-isoindol-2-yl)-(2,4-dihydroxy-5-isopropyl-phenyl)-methanone]
IC50 [1]: < 1000 nM
